US10485814B2, “Nicotinamide riboside analogs and pharmaceutical compositions and uses thereof” (GlaxoSmithKline Intellectual Property (No. 2) Limited, priority 2014, dated 2019)
“Also recorded” adds a separate entry of the source.

Key:
Assay type in all cases: cell-based
[1] = test system: Human primary dermal fibroblasts (HDFa); assay: Intracellular NAD measurement in human primary dermal fibroblasts; details: different concentrations, 3 hrs, absorbance at 405 nm
Procedure: Human primary dermal fibroblasts derived from adult human skins (HDFa, Life technologies, Grand Island, N.Y., Passage 2-4) were grown in Medium 106 (Life Technologies) supplemented with Low Serum Growth Supplement (LSGS) (Life Technologies) and seeded in 12-well plates with density at 2×10^5 cells per well and 2 ml of culture medium in each well.
Stock solution of dihydronicotinamide riboside (NRH, GSK3008320A, GSK, RTP, NC) was prepared in ethanol at 100 mM (25.6 mg/ml) and stored at −20° C. Cells were treated with different concentrations of NRH for 3 hrs, washed twice with PBS containing 5 mM EDTA, and then subject to Nicotinamide adenine dinucleotide (NAD) measurement. In brief, acetonitrile (ACN) lysis buffer (Ammonium Acetate (50 mM) and 90% acetonitrile) was added to each well (200 μl/well) to lyse the cells at RT for 5-10 mins by gently rotating on a culture plate shaker at a low speed. […] At the end of incubation, the supernatant (200 μl) of the reaction solution from each well was transferred to each well of a 96-well plate and absorbance was read twice in the 96-well plate at 405 nm using a plate reader (Spectra Maxplus, Molecular Devices, Sunnyvale, Calif.). […]

Human dermal fibroblasts = assay: UVA-induced gene expression in dermal fibroblasts (QPCR); details: NRH 200 μM for 5 days, UVA 5 or 7.5 J/cm^2
Procedure: Human dermal fibroblasts were grown in regular culture media as described in example 1 and seeded in 12-well plates at 2×10^5 cells per well for overnight. Before UVA exposure, culture media were removed and PBS (500 μl) was added to each well. Cells were treated with NRH at 200 μM in culture media for 5 days, and only exposed to UVA at 5 J/cm^2 or 7.5 J/cm^2 every other day on day 0 and day 3. The Newport DS-101103 UV Solar Simulator with UV-A-F filter (Sol-UV-A-F) (Newport Corporate) was used as the UVA emitter. Measurement of the irradiation was taken using an ILT-1400-A radiometer/photometer with a UVA probe (SSL001A, international light technologies, Inc.). After UVA exposure, PBS was removed from each well and media with NRH were added to cells. Cells were harvested for RNA isolation after 5 days treatment.

[2] = test system: HaCaT cells (a human keratinocyte cell line); assay: Intracellular NAD measurement in HaCaT cells (ADPR cyclase enzymatic assay, absorbance 405 nm)
Procedure: HaCaT cells (AddexBio Technologies, San Diego, Calif., Passage 16-19) were grown in Medium DMEM/GlutMax (Life technologies, Grand Island, N.Y.) supplemented with 10% FBS (Life technologies) and Non-essential amino acids (NEAA, Life technologies) and then seeded in 12-well plates (Corning, Tewksbury, Mass.) with a density at 2×10^5 cells per well and 2 ml of culture medium in each well for overnight.
Stock solution of dihydronicotinamide riboside (NRH, GSK3008320A, GSK, RTP, NC) was prepared in ethanol at 100 mM (25.6 mg/ml) and stored at −20° C. Cells were treated with different concentrations of NRH for 3 hrs, washed twice with PBS containing 5 mM EDTA, and then subject to Nicotinamide adenine dinucleotide (NAD) measurement. In brief, acetonitrile (ACN) lysis buffer (Ammonium Acetate (50 mM) and 90% acetonitrile) was added to each well (200 μl/well) to lyse the cells at RT for 5-10 mins by gently rotating on a culture plate shaker at a low speed. Enzyme master mix (300 μM of 5-Amino-(3,4′-bipyridin)-6(1H)-one (Inamrinone) (Sigma-Aldrich), a substrate for ADP ribosyl cyclase (ADPR cyclase)) and 30 nM ADPR Cyclase (Sigma, St. Louis, Mo.), 7.5 μM of N-(2-fluoro-4-(methylsulfonyl)phenyl)-2-methyl-6-(thiazol-5-yl)isonicotinamide (a CD38 inhibitor) in 75 mM HEPES pH7 buffer (Life Technologies)) was added to the lysed cells (400 μl of enzyme master mix/well). Enzymatic reaction was incubated at RT for ˜30 min. At the end of incubation, the supernatant (200 μl) of the reaction solution from each well was transferred to each well of a 96-well plate and absorbance was read twice in the 96-well plate at 405 nm using a plate reader (Spectra Maxplus, Molecular Devices, Sunnyvale, Calif.). A mixture of enzyme master mix and ACN extraction solution at 2:1 ratio was used as a blank reference. NAD (Sigma) was used as a positive control.
HaCaT cells were grown as described in example 23 in the regular cell culture DMEM medium as described earlier or in the Epilife medium without nacinamide (Life Technologies). Cells were treated with different concentrations of NRH or niacinamide (NIA, DSM nutritional products) for 3 hrs, washed twice with PBS containing 5 mM EDTA, and then subject to Nicotinamide adenine dinucleotide (NAD) measurement as described in example 23. A mixture of enzyme master mix and ACN extraction solution at 2:1 ratio for a blank reference. NAD (Sigma) was used as a positive control. […] Both the CD38 inhibitor and Niacinamide increased NAD in the HaCaT cells cultured in the Vit B3 depleted culture medium, and the induction of NAD by niacinamide was dose-dependent (solid bars). However, the induction of NAD by niacinamide (highest at ˜1.5 fold) was low compared to those by NRH. Therefore, NRH is a stronger NAD inducer compared to a CD38 inhibitor or Niacinamide.
HaCaT cells were grown in regular culture media as described in example 1 and seeded in 12-well plates with density at 2×10^5 cells per well and 1 ml of culture medium in each well. NRH stock solution was prepared in ethanol at 100 mM (25.6 mg/ml) and stored at −20° C. Stock solutions of NRH esters were made at 50 mM in DMSO (see FIG. 9B for compound info). Cells were treated with NRH esters and NRH at 150 μM for 6 and 16 hrs, washed twice with PB S containing 5 mM EDTA, and then subject to Nicotinamide adenine dinucleotide (NAD) measurement as described in example 23.
HaCaT cells were grown in regular culture media as described above and seeded in 12-well plates with density at 2×10^5 cells per well and 1 ml of culture medium in each well. NRH stock solution was prepared in ethanol at 100 mM (25.6 mg/ml) and stored at −20° C. NRH (200 μM) was used as a positive control. Because of the possible solubility issue related to NRH monoC16, fatty acid-free bovine serum albumin (defatted BSA, Sigma) was used as a carrier for the compound. NRH monoC16 stock solution (100×) was complexed with defatted BSA ([…]) prior to the treatment, resulting in a NRH monoC16 stock solution (10 ×). […]

NC(=O)C1=CN([C@@H]2O[C@H](CO)[C@@H](O)[C@H]2O)C=CC1 [NRH, dihydronicotinamide riboside]
NAD level [1]: dose-dependently increases NAD; also recorded: dose-dependently increases NAD^+
COX-2 expression compared to UVA alone (Human dermal fibroblasts): reduced; also recorded: decreases
NQO-1 expression compared to UVA alone (Human dermal fibroblasts): increases
NRF-2 expression compared to UVA alone (Human dermal fibroblasts): increases
NAD levels elevation ([2]; HaCaT in DMEM medium with Vit B3, 450 μM, 3 hrs): ~6 fold
NAD level ([2]; HaCaT keratinocytes, different concentrations, 3 hrs, absorbance at 405 nm): dose-dependently increases NAD; also recorded: dose-dependently increases NAD^+
NAD boosting activity ([2]; HaCaT, 150 μM, 6 and 16 hrs): consistently showed strong activity on NAD elevation
